Reference: patent publication US9833497B2, “Human originated EGF domain proteins and use of the same” (CHENGDU SOURCEBIO LIMITED-LIABILITY COMPANY, priority 2013, dated 2017)

What was measured:
Assay type in all cases: cell-based
E. coli DH5α = assay: Antibacterial activity: MIC and growth curve against E. coli DH5α in 96-well plate; details: minimal inhibitory concentration against E. coli DH5α; 96-well plate, 5×10^5 CFU/mL, 37° C., judged after 8 h
How it was run: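 Log-phase bacteria (OD600 ~0.5) resuspended in LB at 5×10^5 CFU/mL, exposed to recombinant protein at 50, 25, 12.5 μg/mL final in triplicate, 37 °C shaking at 175 rpm. OD600 read every 30 min; MIC is lowest concentration showing no growth.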

E. coli BL21 = assay: MIC against Gram-negative bacteria: E. coli BL21; details: 96-well plate, 5×10^5 CFU/mL, 37° C., 10 h
How it was run: (§1)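 First, colonies from LB agar were grown in LB at 37° C, 185 rpm, to McFarland turbidity 0.5, then centrifuged and resuspended in fresh LB. Next, wells received 5×10^5 CFU/mL bacteria plus two-fold serially diluted EGF domain protein (triplicate). Finally, plates were shaken at 37° C and the no-growth concentration taken as MIC.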

Pseudomonas aeruginosa = assay: MIC against Gram-negative bacteria: Pseudomonas aeruginosa; details: 96-well plate, 5×10^5 CFU/mL, 37° C., 10 h
How it was run: as §1

Klebsiella pneumonia = assay: MIC against Gram-negative bacteria: Klebsiella pneumonia; details: 96-well plate, 5×10^5 CFU/mL, 37° C., 10 h
How it was run: as §1

Enterobacter cloacae = assay: MIC against Gram-negative bacteria: Enterobacter cloacae; details: 96-well plate, 5×10^5 CFU/mL, 37° C., 10 h
How it was run: as §1

Aeromonas hydrophila = assay: MIC against Gram-negative bacteria: Aeromonas hydrophila; details: 96-well plate, 5×10^5 CFU/mL, 37° C., 10 h
How it was run: as §1

Citrobacter diversus = assay: MIC against Gram-negative bacteria: Citrobacter diversus; details: 96-well plate, 5×10^5 CFU/mL, 37° C., 10 h
How it was run: as §1

Moraxella catarrhalis = assay: MIC against Gram-negative bacteria: Moraxella catarrhalis; details: 96-well plate, 5×10^5 CFU/mL, 37° C., 10 h
How it was run: as §1

Proteus mirabilis = assay: MIC against Gram-negative bacteria: Proteus mirabilis; details: 96-well plate, 5×10^5 CFU/mL, 37° C., 10 h
How it was run: as §1

Proteus vulgaris = assay: MIC against Gram-negative bacteria: Proteus vulgaris; details: 96-well plate, 5×10^5 CFU/mL, 37° C., 10 h
How it was run: as §1

Serratia marcescens = assay: MIC against Gram-negative bacteria: Serratia marcescens; details: 96-well plate, 5×10^5 CFU/mL, 37° C., 10 h
How it was run: as §1

Substance | MIC (E. coli DH5α) | MIC E. coli BL21 (E. coli BL21) | MIC P. aeruginosa (Pseudomonas aeruginosa) | MIC K. pneumonia (Klebsiella pneumonia) | MIC E. cloacae (Enterobacter cloacae) | MIC A. hydrophila (Aeromonas hydrophila) | MIC C. diversus (Citrobacter diversus) | MIC M. catarrhalis (Moraxella catarrhalis) | MIC P. mirabilis (Proteus mirabilis) | MIC P. vulgaris (Proteus vulgaris) | MIC S. marcescens (Serratia marcescens)
PRT618 (CDCDPAGIAGPCDAGRCVCKPAVTGERCDRCRSGYYNLDGGNPEGCTQ; listed as Homo sapiens) | 50 µg/mL | 25 µg/mL | 12.5 µg/mL | 50 µg/mL | 12.5 µg/mL | 50 µg/mL | 12.5 µg/mL | 50 µg/mL | 12.5 µg/mL | 50 µg/mL | 25 µg/mL
PRT619 (CNCQGGGACDPDTGDCYSGDENPDIECADCPIGFYNDPHDPRSCKP; listed as Homo sapiens) | 12.5 µg/mL | 25 µg/mL | 50 µg/mL | 25 µg/mL | 12.5 µg/mL | 25 µg/mL | 50 µg/mL | 25 µg/mL | 12.5 µg/mL | 25 µg/mL | 50 µg/mL
PRT620 (CPCHNGFSCSVMPETEEVVCNNCPPGVTGARCELCADGYFGDPFGEHGPVRPCQP; listed as Homo sapiens) | 25 µg/mL | 12.5 µg/mL | 25 µg/mL | 50 µg/mL | 12.5 µg/mL | 50 µg/mL | 12.5 µg/mL | 50 µg/mL | 25 µg/mL | 12.5 µg/mL | 25 µg/mL
PRT621 (CQCNNNVDPSASGNCDRLTGRCLKCIHNTAGIYCDQCKAGYFGDPLAPNPADKCRA; listed as Homo sapiens) | 50 µg/mL | 25 µg/mL | 50 µg/mL | 25 µg/mL | 50 µg/mL | 25 µg/mL | 50 µg/mL | 25 µg/mL | 50 µg/mL | 25 µg/mL | 50 µg/mL
PRT622 (CNCNPMGSEPVGCRSDGTCVCKPGFGGPNC; listed as Homo sapiens) | 25 µg/mL | 50 µg/mL | 25 µg/mL | 50 µg/mL | 25 µg/mL | 12.5 µg/mL | 50 µg/mL | 12.5 µg/mL | 50 µg/mL | 12.5 µg/mL | 12.5 µg/mL
PRT624 (CRCSPLGAASAQCHENGTCVCRPGFEGYKCDRCHDNFFLTADGTHCQQC; listed as Homo sapiens) | 25 µg/mL | 100 µg/mL | 25 µg/mL | 50 µg/mL | 25 µg/mL | 12.5 µg/mL | 25 µg/mL | 12.5 µg/mL | 25 µg/mL | 12.5 µg/mL | 25 µg/mL
PRT625 (CNCSGRSEECTFDRELFRSTGHGGRCHHCRDHTAGPHCERCQENFYHWDPRMPCQP; listed as Homo sapiens) | 12.5 µg/mL | 25 µg/mL | 12.5 µg/mL | 25 µg/mL | 50 µg/mL | 25 µg/mL | 12.5 µg/mL | 25 µg/mL | 50 µg/mL | 25 µg/mL | 12.5 µg/mL
PRT626 (CDCQSAGSLHLQCDDTGTCACKPTVTGWKCDRCLPGFHSLSEGGCRP; listed as Homo sapiens) | 25 µg/mL | 50 µg/mL | 25 µg/mL | 12.5 µg/mL | 25 µg/mL | 50 µg/mL | 25 µg/mL | 12.5 µg/mL | 25 µg/mL | 50 µg/mL | 25 µg/mL
PRT627 (CTCNPAGSLDTCDPRSGRCPCKENVEGNLCDRCRPGTFNLQPHNPAGCSS; listed as Homo sapiens) | 12.5 µg/mL | 25 µg/mL | 12.5 µg/mL | 12.5 µg/mL | 12.5 µg/mL | 12.5 µg/mL | 12.5 µg/mL | 12.5 µg/mL | 50 µg/mL | 12.5 µg/mL | 50 µg/mL
